The assay has as its system P. falciparum 3D7 growth, pLDH absorbance. Kind of assay: blood-stage malaria parasite growth potency – strain 3D7, dose response (AID 2305).
Broadly, the IC50 is the concentration at which inhibition is half-maximal. For the molecule `O=C1NC(c2ccccc2)C2(CCN(CC(O)COc3cccc4ncccc34)CC2)O1` (stereo not drawn), the IC50 came to 740 nM.

`Cc1nc(N)nc(N)c1CCCOc1ccc(Br)cc1` yielded an IC50 of 490 nM.

Regarding `O=C(NCCN1CCCCC1)c1ccc(CNC(=O)c2ccc(O)c(-c3cccc(C(F)(F)F)c3)c2)cc1`, the IC50 is 890 nM.

On to `CCCCCCc1ncc(-c2cc3cc(O)c(-c4ccccc4)cc3oc2=O)s1`, for which the IC50 came out at 1240 nM.

For the molecule `N/C(=N\c1ncccn1)Nc1cccc(Cc2ccccc2)n1`, the IC50 turned out to be 930 nM.

In turn, `Cc1cccc2[nH]c(-c3ccc(-c4ccc(CNCc5ccc(CN)cc5)cc4)cc3)nc12` yielded a half-inhibitory concentration (IC50) of 720 nM.

`CCOC(=O)C1CCN(CCCNC(=O)/C(=C/C=C/c2cc3cc(Cl)c(Cl)cc3[nH]2)OC)CC1` registered an IC50 of 1040 nM.

`CN(C)c1ccc(-c2cscc2C(=O)NC2CCCN(Cc3cccnc3)C2)cc1` (stereo not drawn) yielded a half-inhibitory concentration (IC50) of 860 nM.

`O=c1c2c([nH]c3cc(Cl)ccc13)CCCC2` returned an IC50 of 810 nM.

The molecule `COc1ccc(C#Cc2ccc(-c3c(C)[nH]c(C)c(Cl)c3=O)cc2)cc1` came in with an IC50 of 70 nM.

As for `COc1ccc(-c2cccc(CNCc3ccc(F)cc3)c2)cc1S(=O)(=O)NCCN1CCCC1`, the concentration for half-maximal inhibition (IC50) turned out to be 1850 nM.

The molecule `OC(CNc1ccnc(Nc2cccc(Cl)c2)n1)c1ccccc1C(F)(F)F` (stereo not drawn) displayed an IC50 of 900 nM.

`O=C(NCC1CCN(CCN2CCc3ccc4c(c3C2)OCO4)CC1)c1ccc(-c2ccc(C(F)(F)F)cc2)cc1`: the IC50 was 860 nM.

The molecule `NC1CCN(Cc2cccc(-c3ccc(-c4nc5ccccc5[nH]4)s3)c2)C1` (stereo not drawn) returned a half-maximal inhibitory concentration (IC50) of 730 nM.

Turning to `Cn1c(=N)cc(-c2ccc(Br)cc2)c2c(=O)[nH]c(N)nc21`, the IC50 is 1130 nM.

With `COc1cc(Cc2cnc(N)nc2N)cc(OCCCCCCN2C(=O)c3ccccc3C2=O)c1OC`, the IC50 was 1100 nM.

`c1ccc2ncc(CNCCCCCCCCNCc3cnc4ccccc4c3)cc2c1` gave an IC50 of 850 nM.

In the case of `Cc1noc(C)c1-c1cccc(CNCc2cccc(-c3ccc(-c4nc5ccccc5[nH]4)s3)c2)c1`, the IC50 was determined as 200 nM.

Molecule `Nc1ncc(-c2cn[nH]c2)cc1-c1nc2ccc(Cl)cc2[nH]1` gave an IC50 of 800 nM.

Molecule `NC(=O)C1CCN(Cc2cccc(-c3cccc(-c4nc5ccc(F)cc5[nH]4)c3)c2)CC1` returned a concentration for half-maximal inhibition (IC50) of 850 nM.

For the molecule `COc1ccc2nccc([C@@H](O)CN3CCC(NC(=O)C(c4cc5ccccc5o4)N4CCN(c5ccc(F)cc5)CC4)CC3)c2c1` (stereo partly drawn), the IC50 amounted to 200 nM.

Turning to `O=c1cc(NCCCNCc2cc3c(Cl)cccc3s2)[nH]c2ccccc12`, the concentration for half-maximal inhibition (IC50) came out at 470 nM.

Consider `CC(C)COc1ccc2ccccc2c1CNCCCCCCNCc1c(OCC(C)C)ccc2ccccc12`, for which the IC50 came to 700 nM.

With `Cc1nnc2c(NC(=O)NC3CCCC3)cc3cc(-c4ccc(CN(C)C)cc4)ccc3n12`, the half-inhibitory concentration (IC50) amounted to 1470 nM.

`Cc1cccc2[nH]c(-c3ccc(-c4cccc(NC(=O)NCc5cccc(F)c5)c4)cc3)nc12`: the IC50 worked out at 850 nM.

As to `CN(C)Cc1ccc(-c2ccc3c(Nc4ccc(Oc5ccccn5)cc4)ccnc3c2)o1`, the IC50 worked out at 160 nM.

`COC(=O)c1cccc(NC(=O)NC2CCN(c3ccnc(Nc4cc(OC)c(OC)c(OC)c4)n3)C2)c1` (stereo not drawn) had an IC50 of 510 nM.

The molecule `Cc1cc(C)cc(NC(=S)NCCCCN2CCN(c3cccc(Cl)c3)CC2)c1` displayed an IC50 of 1350 nM.

`O=C(Nc1ccc(Cn2ncc(N3CCCNCC3)c(Cl)c2=O)cc1)Nc1cccc(Oc2ccccc2)c1` had an IC50 of 990 nM.

For the molecule `FC(F)(F)c1ccc2nc(-c3ccc(-c4ccc(CN5CCN(c6cnccn6)CC5)cc4)s3)[nH]c2c1`, the IC50 stood at 650 nM.

For the molecule `O=C(O)Cc1ccc(-c2c[nH]c3ncc(-c4cccc5ncccc45)cc23)cc1`, the IC50 was 850 nM.

`CN(C)CCNc1cc(-c2ccc3ccccc3c2)nc2ccccc12` yielded an IC50 of 350 nM.

Turning to `COc1ccc(NC(=O)Nc2nc3ccccc3s2)cc1N1CCN(C)CC1`, the IC50 came out at 700 nM.

In the case of `CCN(CC)CCOC(=O)c1ccc(NC(=O)c2cc(-c3ccc(C)cc3)nc3ccccc23)cc1`, the IC50 amounted to 780 nM.

`Cc1c(Cl)cccc1NC(=S)NN=Cc1ccccn1` showed an IC50 of 600 nM.

`Cc1cccc2[nH]c(-c3cccc(-c4cccc(NC(=O)Nc5ccccc5)c4)c3)nc12` returned an IC50 of 140 nM.

`COc1ccc(C2CC(c3cccs3)=NN2C(=O)CNc2cccc(C#N)c2)cc1OC` (stereo not drawn): the IC50 amounted to 1450 nM.

`COc1ccc2nccc([C@@H](O)CN3CCC(NCCOc4cc(F)cc(F)c4)CC3)c2c1` gave a concentration for half-maximal inhibition (IC50) of 160 nM.

`Cc1cc(N[C@@H](Cc2ccccc2)C(=O)NCCOc2ccccc2)nc(NCC2CCCCC2)n1` yielded an IC50 of 850 nM.

The molecule `Cc1cc(N(C)CCN(C)C)nc(Nc2ccc(Br)cc2)n1` had an IC50 of 800 nM.

Turning to `COc1cccc(C(=O)NCc2cccs2)c1OCc1ccccc1`, the IC50 is 920 nM.

`CC(=O)NC(c1cccs1)c1cc(Cl)c2cccnc2c1O` (stereo not drawn) showed an IC50 of 320 nM.

Regarding `CS(=O)(=O)c1ccc2c(c1)CCN(CCC1CCC(NC(=O)c3cc4cccc(Br)c4[nH]3)CC1)CC2` (stereo not drawn), the IC50 was 1040 nM.

For the molecule `CC(=O)Nc1ccc(CN2CCC(NC(=O)c3ccc(-c4ccc(N(C)C)cc4)s3)CC2)cc1`, the IC50 came out at 870 nM.

The molecule `Clc1ccc(Nc2nc(-c3ccccn3)cs2)nc1` showed an IC50 of 770 nM.

For the molecule `O=C(Nc1ccc(CN2CCCCC2)cc1)c1ccc(COc2ccc([N+](=O)[O-])cc2)o1`, the IC50 amounted to 1000 nM.

In turn, `Cc1c(S(=O)(=O)Nc2cccc(CCN3CCCCC3CCN3CCCC3)c2)sc2ccc(Cl)cc12` (stereo not drawn) displayed an IC50 of 930 nM.

As to `O=C(Oc1ccc(Cl)cc1C(=O)Nc1ccc([N+](=O)[O-])cc1Cl)c1ccccc1`, the IC50 turned out to be 910 nM.

On to `CCCc1c(C(=O)NC2CCC(CN3CCC(c4c[nH]c5ccccc45)CC3)CC2)cnn1-c1ccccc1` (stereo not drawn), for which the IC50 stood at 1790 nM.

For `COc1ccc2nccc([C@@H](O)CN3CCC(NC(=O)/C=C/c4ccc5[nH]c(=O)ccc5c4)CC3)c2c1`, the IC50 was 970 nM.

`Cc1cc(N[C@@H](CC(C)C)C(=O)NC2CCCC2)nc(NCCc2ccc(F)cc2)n1` had a 50% inhibitory concentration (IC50) of 790 nM.

`CC1CCN(CCNC(=O)c2ccc3c(=O)n(Cc4ccc(Cl)cc4)c(=S)[nH]c3c2)CC1` had an IC50 of 700 nM.

`COc1ccc(NCCCNc2ccnc3ccccc23)cc1`: the IC50 is 970 nM.

The molecule `COc1ccc2nccc([C@@H](O)CN3CCC(NCc4ccc5c(c4)oc(=S)n5C)CC3)c2c1` yielded an IC50 of 190 nM.

Molecule `FC(F)(F)c1ccc2nccc(NN=CC=Cc3ccccc3)c2c1` displayed an IC50 of 1020 nM.

`CN(C(=O)/C=C/c1cc(C(F)(F)F)ccc1F)C1CCN(CCCCCNC(=O)/C=C/c2ccc(Cl)c(Cl)c2)C1` (stereo not drawn) came in with an IC50 of 1090 nM.

In the case of `O=C(NCc1cccnc1)C(c1cc2ccccc2o1)N1CCN(C(c2ccccc2)c2ccccc2)CC1` (stereo not drawn), the IC50 was determined as 710 nM.

Molecule `COc1ccc(OCc2ccccn2)c(C2CCN(CCCCNC(=O)c3ccc(NC(=O)c4ccc(Cl)cc4)cc3)CC2)c1` returned a 50% inhibitory concentration (IC50) of 760 nM.

As to `O=C(Cn1nc(Br)nc1[N+](=O)[O-])NCC1CCCCC1`, the 50% inhibitory concentration (IC50) was found to be 1100 nM.

`CCOC(=O)c1[nH]c(-c2cc(Cl)nc(Cl)c2)nc1NC(=S)NCCCN1CCOCC1` had a concentration for half-maximal inhibition (IC50) of 930 nM.

`Fc1ccc2nc(-c3cccc(-c4cccc(CNCc5ccccc5)c4)c3)[nH]c2c1` had an IC50 of 280 nM.

Turning to `CSc1cccc(Nc2nc3ccc(S(=O)(=O)NC(C)C(C)C)cc3n2[C@H](C)C(C)(C)C)c1` (stereo partly drawn), the IC50 came to 450 nM.

Regarding `CCN(CC)CC(O)Cc1c2ccc([N+](=O)[O-])cc2nc2cc(OC)c(OC)cc12` (stereo not drawn), the 50% inhibitory concentration (IC50) turned out to be 740 nM.

`c1ccc2[nH]c(Nc3ccc(Nc4nc5ccccc5[nH]4)cc3)nc2c1` displayed an IC50 of 780 nM.

Turning to `CCCCCCCN1CCC(CC(=O)Nc2ccnc3ccc(OC)cc23)CC1`, the IC50 was 720 nM.

The molecule `Cc1cc(N[C@@H](Cc2ccccc2)C(=O)Nc2ccccc2)nc(NCCN2CCCC2)n1` displayed a half-inhibitory concentration (IC50) of 1810 nM.

For the molecule `Cc1ccc(Cl)c2sc(N3CCN(C(=O)c4ccc([N+](=O)[O-])o4)CC3)nc12`, the IC50 was 320 nM.

Take `O=C(CCCCCCc1ccccc1)Nc1ccc2nc3c(c(NCc4ccccc4)c2c1)CCCC3`: the 50% inhibitory concentration (IC50) amounted to 360 nM.

For the molecule `CN1CCN(c2cc(NC(=O)c3ccc(-c4ccc(C#N)cc4)cc3)ccc2Cl)CC1`, the concentration for half-maximal inhibition (IC50) was determined as 460 nM.

As to `O=C(NCCN1Cc2ccccc2C1=O)c1ccc(Oc2ccc(C(=O)NCCN3Cc4ccccc4C3=O)cc2)cc1`, the IC50 worked out at 360 nM.

In turn, `COc1cc(C)ccc1N1CCN(CCCCNC(=O)c2ccc(NC(=O)c3ccc(Cl)cc3)cc2)CC1` came in with an IC50 of 700 nM.

The molecule `CNC(=O)c1ccccc1Nc1nc(Nc2ccc(N3CCOCC3)cc2)ncc1Cl` gave an IC50 of 730 nM.

With `CCCCCN1CCC(NS(=O)(=O)c2cccc(C(=O)Nc3ccc(C(F)(F)F)cc3)c2)C1` (stereo not drawn), the IC50 came out at 800 nM.

For the molecule `O=C(Cc1ccc(-c2ccccc2)cc1)N[C@H]1CCN(Cc2ccc(OCCCN3CCCCC3)cc2)C1`, the concentration for half-maximal inhibition (IC50) was determined as 770 nM.

As to `COc1ccccc1N1CCN(c2cccc(F)c2C#N)CC1`, the IC50 was determined as 960 nM.

On to `Nc1nc(N)c2cc(NC(=O)c3ccc(Cl)c(Cl)c3)ccc2n1`, for which the IC50 turned out to be 150 nM.

The molecule `O=C(N1CCN(c2ccc(C(F)(F)F)cc2[N+](=O)[O-])CC1)C(Cl)(Cl)Cl` yielded an IC50 of 710 nM.

Molecule `Cc1cc(O)c2c(c1)OC(C)(C)C=C2C1=CCN(Cc2ccccc2)CC1` had an IC50 of 790 nM.

Molecule `CC12CCC(=O)N1C(C(=O)Nc1cccc(C(=O)Nc3cccc(C(F)(F)F)c3)c1)CS2` (stereo not drawn) gave an IC50 of 360 nM.

Consider `O=C(Nc1ccc(Cl)c(Cl)c1)N[C@H]1CCN(CCCCCNC(=O)[C@@H]2C[C@H]2c2ccc(Cl)c(Cl)c2)C1`, for which the IC50 amounted to 1030 nM.

For `O=C(CCn1cncn1)N1CCCC(c2[nH]c3ccccc3c2-c2ccncc2)C1` (stereo not drawn), the half-inhibitory concentration (IC50) worked out at 800 nM.

`COc1c(C2CCN(CCCCNC(=O)c3ccc(-c4ccc(Cl)cc4)cn3)CC2)ccc2c1CCCC2`: the half-maximal inhibitory concentration (IC50) came to 910 nM.

Consider `NC(=O)c1ccccc1OCC(=O)Nc1cccc(-c2ccc(-c3nc4ccc(C(F)(F)F)cc4[nH]3)cc2)c1`, for which the IC50 turned out to be 650 nM.

With `CC(=O)Nc1ccc(CN(Cc2ccc(C)cc2)Cc2cccc(Oc3ccccc3)c2)cc1`, the IC50 worked out at 1050 nM.

For the molecule `N#Cc1ccc2c(c1)CCN(CCC1CCC(NC(=O)c3cc4ccc(Cl)cc4[nH]3)CC1)C2` (stereo not drawn), the IC50 is 700 nM.

On to `c1ccc(-c2nc(Nc3ccncc3)sc2-c2ccccc2)cc1`, for which the IC50 amounted to 810 nM.

`COc1cc(-c2nnc(SCC(=O)Nc3cc(C)on3)n2C)cc(OC)c1O` gave an IC50 of 180 nM.

Regarding `COc1ccc2nc(/C=C/c3cccc4ccc(C)nc34)[nH]c2c1`, the concentration for half-maximal inhibition (IC50) worked out at 790 nM.

The values are drawn from PubChem BioAssay AID2305 (GlaxoSmithKline (GSK), 2010).
